Measured values reported in ChEMBL document CHEMBL5365510, “Discovery of Novel, Thienopyridine-Based Tyrosine Kinase Inhibitors Targeting Tumorigenic RON Splice Variants” (ACS Med Chem Lett, 2023).
The source made the active and inactive calls. The rule behind the calls is not given here.

Columns and labels:
SW-620 = assay: Antiproliferative activity against human SW620 cells harbouring KRAS G12 V mutant and RON delta 155 assessed as cell growth inhibition measured after 72 hrs by MTS assay; format: functional
HT-29 [1] = assay: Antiproliferative activity against human HT-29 cells harbouring wild-type KRAS and RON delta 160 assessed as cell growth inhibition measured after 72 hrs by MTS assay; format: functional
[2] = target: Macrophage-stimulating protein receptor (Homo sapiens, UniProt Q04912); assay: Inhibition of N-terminal GST-tagged human recombinant RON (979 to 1400(end) residues) expressed in Sf21 cells incubated for 20 mins followed by ATP addition measured after 60 mins by TR-FRET based LanthaScreen kinase assay
KM12C [3] = assay: Antiproliferative activity against human KM12-C cells harbouring wild-type KRAS and RON delta 160 assessed as cell growth inhibition measured after 72 hrs by MTS assay; format: functional
KM12C [4] = assay: Antiproliferative activity against human KM12-C cells harbouring wild-type KRAS and RON delta 160 assessed as cell death rate at 5 uM measured after 48 hrs by trypan blue exclusion assay relative to control; format: functional
HT-29 [5] = assay: Antiproliferative activity against human HT-29 cells harbouring wild-type KRAS and RON delta 160 assessed as cell death rate at 5 uM measured after 48 hrs by trypan blue exclusion assay relative to control; format: functional

| SMILES | GI50 (SW-620) | GI50 (HT-29 [1]) | IC50 [2] | GI50 (KM12C [3]) | Activity (KM12C [4]) | Activity (HT-29 [5]) |
| --- | --- | --- | --- | --- | --- | --- |
| CCOc1ccn(-c2ccc(F)cc2)c(=O)c1C(=O)Nc1ccc(Oc2ccnc3cc(-c4ccccn4)sc23)c(F)c1 | 1550 nM | 3140 nM | 0.48 nM | 22 nM | – | – |
| CCOc1ccn(-c2ccc(F)cc2)c(=O)c1C(=O)Nc1ccc(Oc2ccnc3cc(-c4ccc(CN5CCC(F)(F)CC5)cn4)sc23)c(F)c1 | 7370 nM | 660 nM | 6 nM | 27 nM | – | – |
| CCOc1ccn(-c2ccc(F)cc2)c(=O)c1C(=O)Nc1ccc(Oc2ccnc3cc(-c4ccc(CN5CCC(F)(F)C5)cn4)sc23)c(F)c1 | 620 nM | 4880 nM | 0.86 nM | 9 nM | – | – |
| O=C(Nc1ccc(Oc2ccnc3cc(-c4ccc(CN5CCOCC5)cn4)sc23)c(F)c1)c1c(OCCC2CC2)ccn(-c2ccc(F)cc2)c1=O | 2370 nM | 860 nM | 0.72 nM | 11 nM | – | – |
| CCOc1ccn(-c2ccc(F)cc2)c(=O)c1C(=O)Nc1ccc(Oc2ccnc3cc(-c4ccc(CN5CCC(OC)C5)cn4)sc23)c(F)c1 (stereo unspecified) | 360 nM | 7710 nM | 0.69 nM | 23 nM | – | – |
| CC(C)COc1ccn(-c2ccc(F)cc2)c(=O)c1C(=O)Nc1ccc(Oc2ccnc3cc(-c4ccc(CN5CCOCC5)cn4)sc23)c(F)c1 | 380 nM | 160 nM | 0.62 nM | 3 nM | Active | Active |
| CCOc1ccn(-c2ccc(F)cc2)c(=O)c1C(=O)Nc1ccc(Oc2ccnc3cc(-c4ccc(CN5CC(F)(F)C5)cn4)sc23)c(F)c1 | 780 nM | 970 nM | 0.48 nM | 24 nM | – | – |
| CN1CCC(Oc2ccn(-c3ccc(F)cc3)c(=O)c2C(=O)Nc2ccc(Oc3ccnc4cc(-c5ccc(CN6CCOCC6)cn5)sc34)c(F)c2)C1 (stereo unspecified) | 3660 nM | 5610 nM | 5.47 nM | 55 nM | – | – |
| CCOc1ccn(-c2ccccc2)c(=O)c1C(=O)Nc1ccc(Oc2ccnc3cc(-c4ccc(CN5CCOCC5)cn4)sc23)c(F)c1 | 260 nM | – | – | 3 nM | Active | Active |
| CN(C)CCOc1ccn(-c2ccc(F)cc2)c(=O)c1C(=O)Nc1ccc(Oc2ccnc3cc(-c4ccc(CN5CCOCC5)cn4)sc23)c(F)c1 | 1920 nM | 970 nM | 2.15 nM | 35 nM | – | – |
| CCOc1ccn(-c2cccc(F)c2)c(=O)c1C(=O)Nc1ccc(Oc2ccnc3cc(-c4ccc(CN5CCOCC5)cn4)sc23)c(F)c1 | 640 nM | 395 nM | 0.74 nM | 42 nM | Active | Active |
| CCOc1ccn(-c2ccc(F)cc2)c(=O)c1C(=O)Nc1ccc(Oc2ccnc3cc(-c4ccc(CN5CCC(F)CC5)cn4)sc23)c(F)c1 | 560 nM | 2440 nM | 1.82 nM | 17 nM | – | – |
| CCOc1ccn(-c2ccc(F)cc2)c(=O)c1C(=O)Nc1ccc(Oc2ccnc3cc(-c4ccc(CN5CCN(C)CC5)cn4)sc23)c(F)c1 | 680 nM | – | – | 9 nM | – | – |
| CCCOc1ccn(-c2ccc(F)cc2)c(=O)c1C(=O)Nc1ccc(Oc2ccnc3cc(-c4ccc(CN5CCOCC5)cn4)sc23)c(F)c1 | 590 nM | 500 nM | 0.49 nM | 10 nM | Active | Active |

Continued, in another order:

| GI50 (SW-620) | GI50 (HT-29 [1]) | IC50 [2] | SMILES | GI50 (KM12C [3]) | Activity (KM12C [4]) | Activity (HT-29 [5]) |
| --- | --- | --- | --- | --- | --- | --- |
| 200 nM | 1250 nM | 0.63 nM | CCOc1ccn(-c2ccc(F)cc2)c(=O)c1C(=O)Nc1ccc(Oc2ccnc3cc(-c4ccc(CN5CC(F)C5)cn4)sc23)c(F)c1 | 16 nM | – | – |
| 2840 nM | 1560 nM | – | CCOc1ccn(-c2ccc(F)cc2)c(=O)c1C(=O)Nc1ccc(Oc2ccnc3cc(-c4ccc(CN5CCOCC5)cn4)sc23)cc1Cl | 6 nM | – | – |
| 540 nM | 650 nM | 0.82 nM | CCOc1ccn(-c2ccc(F)cc2)c(=O)c1C(=O)Nc1ccc(Oc2ccnc3cc(-c4ccc(CN5CCC(F)C5)cn4)sc23)c(F)c1 (stereo unspecified) | 16 nM | – | – |
| 1090 nM | 660 nM | – | CCOc1ccn(-c2ccc(F)cc2)c(=O)c1C(=O)Nc1ccc(Oc2ccnc3cc(-c4ccc(CN5CCOCC5)cn4)sc23)c(Cl)c1 | 15 nM | – | – |
| 830 nM | 650 nM | 2.83 nM | CCOc1ccn(-c2ccc(F)cc2)c(=O)c1C(=O)Nc1ccc(Oc2ccnc3cc(-c4ccc(CCN5CCOCC5)cn4)sc23)c(F)c1 | 26 nM | – | – |
| – | – | 17.3 nM | CCOc1ccn(-c2ccc(C(F)(F)F)cc2)c(=O)c1C(=O)Nc1ccc(Oc2ccnc3cc(-c4ccc(CN5CCOCC5)cn4)sc23)c(F)c1 | – | – | – |
| 1030 nM | 1640 nM | 0.16 nM | CCOc1ccn(-c2ccc(F)cc2)c(=O)c1C(=O)Nc1ccc(Oc2ccnc3cc(-c4ccc(CN5CC(OC)C5)cn4)sc23)c(F)c1 | 27 nM | – | – |
| 1560 nM | 2770 nM | 2.39 nM | CCOc1ccn(-c2ccc(F)cc2)c(=O)c1C(=O)Nc1ccc(Oc2ccnc3cc(-c4ccc(OCCN5CCOCC5)cn4)sc23)c(F)c1 | 38 nM | – | – |
| 1350 nM | 642 nM | 2.25 nM | CCOc1ccn(-c2ccc(F)cc2)c(=O)c1C(=O)Nc1cc(F)c(Oc2ccnc3cc(-c4ccc(CN5CCOCC5)cn4)sc23)c(F)c1 | 40 nM | – | – |
| 580 nM | 600 nM | – | CCOc1ccn(-c2ccc(Cl)cc2)c(=O)c1C(=O)Nc1ccc(Oc2ccnc3cc(-c4ccc(CN5CCOCC5)cn4)sc23)c(F)c1 | 25 nM | – | – |
| 700 nM | 1770 nM | 0.73 nM | CCOc1ccn(-c2ccc(F)cc2)c(=O)c1C(=O)Nc1ccc(Oc2ccnc3cc(-c4ccc(CN5CCC(OC)CC5)cn4)sc23)c(F)c1 | 19 nM | – | – |
| 440 nM | 590 nM | – | CCOc1ccn(-c2ccc(F)cc2)c(=O)c1C(=O)Nc1ccc(Oc2ccnc3cc(-c4ccc(CNCCOC)cn4)sc23)c(F)c1 | 3400 nM | – | – |
| 1000 nM | 840 nM | 0.98 nM | CCCCOc1ccn(-c2ccc(F)cc2)c(=O)c1C(=O)Nc1ccc(Oc2ccnc3cc(-c4ccc(CN5CCOCC5)cn4)sc23)c(F)c1 | 15 nM | – | – |
| – | – | 75.6 nM | CN1CCC(COc2ccn(-c3ccc(F)cc3)c(=O)c2C(=O)Nc2ccc(Oc3ccnc4cc(-c5ccc(CN6CCOCC6)cn5)sc34)c(F)c2)C1 (stereo unspecified) | – | – | – |
